Measurements: ChEMBL document CHEMBL1201862, “PubChem BioAssay data set” (2004)
Active and inactive are the calls of the source.

Key:
[1] = OVCAR-3 cell viability loss – plate reader, dry powder samples, PAX8 inhibitor project, dose response (AID 743044); type: functional, cell-based
[2] = molecular target: Paired box protein Pax-8 (Homo sapiens, UniProt Q06710); assay: PAX8 transcriptional activity inhibition in RMG-I – RMG-I cells, luciferase, cherry-pick, dose response (AID 687027); type: functional, cell-based;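 note: luciferase reporter driven by Pax8 target thyroperoxidase promoter measured by SteadyGlo luminescence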
[3] = toxicity to human hepatoma HepG2 cells – cell-based, cherry-picked samples, cytotoxicity control, dose response (AID 1159577); type: functional
[4] = Dd2 parasite growth inhibition in erythrocytes – SYBR Green, dry powder samples, set 9, dose response (AID 1159568); type: functional, cell-based
[5] = P. falciparum Dd2 growth inhibitors, dose response, SYBR Green, cherry-picked samples (AID 1159567); type: functional, cell-based
[6] = Luminescence Cell-Based Dose Confirmation HTS to Identify Inhibitors of Platelet Dense Granule Release. [Related pubchem assays: 1663 (Primary HTS), 1678 (Summary of Project)]; type: functional
[7] = molecular target: Luciferin 4-monooxygenase (Photinus pyralis, UniProt P08659); assay: inhibition of purified Photinus pyralis luciferase – biochemical, luminescence, dose response (AID 1891)
[8] = viability loss in HepG2 hepatoma cells – cell-based, ATP luminescence, cherry-pick, activator set 2, cytotoxicity control, dose response (AID 1053143); type: functional
[9] = molecular target: Dual specificity tyrosine-phosphorylation-regulated kinase 1A (Rattus norvegicus, UniProt Q63470); type: biochemical, Homo sapiens
[10] = cells
[11] = Luminescence Cell-Based Dose Response HTS to Identify Activators of Luciferase Translation or Activity in H4 […] Cells. [Related pubchem assays: 1829 (Project Summary), 1814 (Primary HTS)]; type: functional
[12] = molecular target: T1, Oxysterols receptor LXR-beta (Homo sapiens, UniProt P55055); type: functional, cell-based;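 note: Cell-based luminescence dose-response assay of agonist activity at LXR, run as a confirmatory counterscreen to a daf-12 agonist screen; HEK293 cells with Gal4-LXR fusion and GAL4-driven luciferase reporter; agonist potency from rising luciferase signal of a Gal4-LXR reporter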
T1 sequence (P55055 whole entry): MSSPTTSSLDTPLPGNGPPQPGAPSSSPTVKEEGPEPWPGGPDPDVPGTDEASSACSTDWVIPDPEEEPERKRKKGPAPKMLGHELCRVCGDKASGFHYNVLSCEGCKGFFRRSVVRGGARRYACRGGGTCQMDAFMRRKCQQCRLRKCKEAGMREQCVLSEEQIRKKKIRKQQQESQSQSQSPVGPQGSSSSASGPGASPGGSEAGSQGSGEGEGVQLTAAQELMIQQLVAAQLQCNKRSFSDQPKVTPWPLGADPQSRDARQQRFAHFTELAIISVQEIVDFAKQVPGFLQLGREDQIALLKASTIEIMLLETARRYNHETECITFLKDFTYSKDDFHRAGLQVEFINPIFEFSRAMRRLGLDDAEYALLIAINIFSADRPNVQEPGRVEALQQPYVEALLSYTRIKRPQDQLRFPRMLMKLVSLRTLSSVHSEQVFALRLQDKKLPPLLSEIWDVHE

[13] = molecular target: T2, Protein skinhead-1 (Caenorhabditis elegans, UniProt P34707); type: functional
T2 sequence (P34707 whole entry): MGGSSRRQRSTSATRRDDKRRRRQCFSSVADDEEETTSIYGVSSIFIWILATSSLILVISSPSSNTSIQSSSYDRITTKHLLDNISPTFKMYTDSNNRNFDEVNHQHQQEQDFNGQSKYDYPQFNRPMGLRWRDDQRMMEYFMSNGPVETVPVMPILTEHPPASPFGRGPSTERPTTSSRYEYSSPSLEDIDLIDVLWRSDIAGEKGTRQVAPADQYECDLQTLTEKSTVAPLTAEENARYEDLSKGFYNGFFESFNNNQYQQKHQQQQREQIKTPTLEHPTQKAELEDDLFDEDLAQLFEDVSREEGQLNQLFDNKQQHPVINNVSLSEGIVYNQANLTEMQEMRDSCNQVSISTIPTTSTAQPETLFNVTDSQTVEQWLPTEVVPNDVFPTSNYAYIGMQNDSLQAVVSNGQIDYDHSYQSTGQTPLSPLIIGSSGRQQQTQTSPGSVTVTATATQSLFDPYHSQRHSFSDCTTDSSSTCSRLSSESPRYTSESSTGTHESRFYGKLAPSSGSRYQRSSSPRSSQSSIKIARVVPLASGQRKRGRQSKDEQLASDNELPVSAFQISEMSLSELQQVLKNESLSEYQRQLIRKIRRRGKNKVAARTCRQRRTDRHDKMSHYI

[14] = tested on: H4; assay: Luminescence Cell-Based Dose Response HTS to Identify Activators of 5'UTR Stem-Loop Driven Prion Protein mRNA Translation in H4 Neuroglioblastoma Cells. [Related pubchem assays: 1829 (Project Summary), 1814 (Primary HTS)]; type: functional; settings: Homo sapiens
[15] = molecular target: Cytochrome P450 2C9 (Homo sapiens, UniProt P11712)
[16] = molecular target: fMet-Leu-Phe receptor (Homo sapiens, UniProt P21462); assay: formyl peptide receptor binders – dose response (AID 519); type: functional
[17] = molecular target: T3, Trace amine-associated receptor 1 (Homo sapiens, UniProt Q96RJ0); assay: Fluorescence-based cell-based high throughput dose response assay to identify agonists of the human trace amine associated receptor 1 (TAAR1).; type: functional
T3 sequence (Q96RJ0 whole entry): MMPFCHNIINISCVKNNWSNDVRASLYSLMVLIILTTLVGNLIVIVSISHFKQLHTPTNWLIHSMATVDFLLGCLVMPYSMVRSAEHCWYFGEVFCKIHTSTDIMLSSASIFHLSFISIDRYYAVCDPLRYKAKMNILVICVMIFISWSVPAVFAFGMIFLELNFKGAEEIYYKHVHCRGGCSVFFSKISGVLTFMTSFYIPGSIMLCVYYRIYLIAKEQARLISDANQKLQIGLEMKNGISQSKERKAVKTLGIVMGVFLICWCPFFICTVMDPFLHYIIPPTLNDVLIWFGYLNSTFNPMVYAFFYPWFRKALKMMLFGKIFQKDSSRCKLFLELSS

[18] = molecular target: T4, Zinc finger protein mex-5 (Caenorhabditis elegans, UniProt Q9XUB2); assay: potency of MEX-5 RNA-binding blockers – biochemical, C. elegans, fluorescence polarization, dose response (AID 1960)
T4 sequence (Q9XUB2 whole entry): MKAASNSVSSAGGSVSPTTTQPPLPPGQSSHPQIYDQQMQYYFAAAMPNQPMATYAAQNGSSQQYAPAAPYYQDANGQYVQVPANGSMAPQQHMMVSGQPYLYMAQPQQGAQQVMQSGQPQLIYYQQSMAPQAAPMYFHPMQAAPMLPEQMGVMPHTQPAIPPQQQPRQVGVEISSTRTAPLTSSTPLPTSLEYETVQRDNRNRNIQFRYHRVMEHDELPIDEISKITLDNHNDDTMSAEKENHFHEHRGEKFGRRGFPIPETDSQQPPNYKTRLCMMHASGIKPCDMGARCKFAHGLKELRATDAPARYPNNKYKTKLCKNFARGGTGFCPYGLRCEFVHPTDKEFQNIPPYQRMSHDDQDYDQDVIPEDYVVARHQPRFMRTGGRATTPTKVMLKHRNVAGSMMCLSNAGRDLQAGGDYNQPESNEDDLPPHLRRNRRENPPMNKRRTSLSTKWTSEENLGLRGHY

[19] = cells; type: functional, cell-based
[20] = molecular target: Kallikrein-7 (Homo sapiens, UniProt P49862); assay: Fluorescence Intensity-based biochemical primary high throughput dose response assay to identify activators of kallikrein-7 (K7) zymogen.
[21] = molecular target: Mu-type opioid receptor (Homo sapiens, UniProt P35372); type: functional, cell-based;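 note: U2OS cells with beta-arrestin recruitment to OPRM1 by beta-gal complementation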
[22] = molecular target: 5-hydroxytryptamine receptor 2A (Mus musculus, UniProt P35363); type: functional, cell-based;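 note: CHO-K1 cells with tagged receptor and beta-arrestin; agonist potency measured as compound-induced activation of the receptor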
[23] = molecular target: T3, Trace amine-associated receptor 1; assay: Counterscreen for agonists of the human trace amine associated receptor 1 (hTAAR1): Fluorescence-based cell-based high throughput dose response assay to identify hTAAR1 agonist that also desensitize TAAR1 receptor response.; type: functional
[24] = molecular target: T5, RNA-binding protein pos-1 (Caenorhabditis elegans, UniProt G5EF15); assay: disruptors of C. elegans POS-1 RNA interaction – biochemical, fluorescence polarization, dose response (AID 1964);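 note: purified POS-1 fused to maltose binding protein made in E. coli; potency of compounds blocking POS-1 binding to fluorescent RNA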
T5 sequence (G5EF15 whole entry): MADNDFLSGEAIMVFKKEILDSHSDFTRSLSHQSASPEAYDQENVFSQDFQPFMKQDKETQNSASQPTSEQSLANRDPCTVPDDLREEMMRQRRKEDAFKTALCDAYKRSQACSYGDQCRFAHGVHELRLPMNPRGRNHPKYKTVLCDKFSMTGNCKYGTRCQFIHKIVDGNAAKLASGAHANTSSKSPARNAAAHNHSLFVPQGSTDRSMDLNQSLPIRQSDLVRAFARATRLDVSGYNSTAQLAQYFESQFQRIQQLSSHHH

[25] = cells; type: functional, cell-based; remark: listed apart in the source
[26] = reduced cellular PGC1a acetyl-lysine signal – cell-based, cherry-picked samples, dose response (AID 720514); type: functional;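 note: potency may reflect raised or lowered acetylation signal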
[27] = activation of miR-122 Renilla sensor silencing – cell-based, Huh7 psiCHECK-miR122, Renilla luciferase, cherry-picked, dose response (AID 651956); type: functional;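 note: huh7 hepatoma cells stably carrying a psiCHECK-2 miR-122 sensor plasmid; renilla luciferase signal reporting endogenous miR-122 activity after 48 h compound exposure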
[28] = general mammalian cell viability loss – inhibitor set, cherry-pick, set 2, cytotoxicity control for miR-122 modulator project, dose response (AID 720697); type: functional, cell-based
[29] = molecular target: T6, Carboxy-terminal domain RNA polymerase II polypeptide A small phosphatase 1 (Homo sapiens, UniProt Q9GZU7); assay: CTDSP1 inhibitors, concentration-response, biochemical, absorbance readout, ultra-high-throughput screen actives (AID 540297); type: functional
T6 sequence (Q9GZU7 whole entry): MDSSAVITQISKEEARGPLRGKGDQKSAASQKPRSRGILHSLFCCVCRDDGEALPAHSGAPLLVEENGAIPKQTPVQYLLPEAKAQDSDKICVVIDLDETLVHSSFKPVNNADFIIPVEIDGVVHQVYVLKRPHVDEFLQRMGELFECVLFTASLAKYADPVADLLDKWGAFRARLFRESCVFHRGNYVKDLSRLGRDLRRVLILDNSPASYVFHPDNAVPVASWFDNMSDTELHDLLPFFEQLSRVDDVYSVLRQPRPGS

[30] = molecular target: Caspase-7 (Homo sapiens, UniProt P55210); assay: caspase-7 enzyme inhibition, selectivity check – biochemical, DEVD-R110 fluorescence, cherry-pick, selectivity assay for caspase-6 inhibitor project, dose response (AID 743295); type: functional
[31] = molecular target: T7, Caspase-6 (Homo sapiens, UniProt P55212); assay: inhibition of CASP6 peptide cleavage – biochemical, VEID-R110 fluorescence, cherry-pick, dose response (AID 720632)
T7 sequence (P55212 whole entry): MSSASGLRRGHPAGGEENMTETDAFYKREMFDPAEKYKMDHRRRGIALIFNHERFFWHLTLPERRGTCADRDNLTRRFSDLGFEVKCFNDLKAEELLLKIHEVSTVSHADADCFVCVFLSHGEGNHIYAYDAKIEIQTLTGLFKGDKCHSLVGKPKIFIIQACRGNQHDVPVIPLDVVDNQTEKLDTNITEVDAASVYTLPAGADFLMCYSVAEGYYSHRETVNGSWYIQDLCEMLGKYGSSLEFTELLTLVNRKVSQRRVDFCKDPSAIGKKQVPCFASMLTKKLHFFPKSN

[32] = molecular target: Induced myeloid leukemia cell differentiation protein Mcl-1 (Homo sapiens, UniProt Q07820); type: functional
[33] = molecular target: Glucose-6-phosphate 1-dehydrogenase (Homo sapiens, UniProt P11413); assay: inhibition of Homo sapiens G6PD, dose series – biochemical, fluorescence, selectivity assay for P. falciparum G6PD inhibitor project, dose response (AID 504792); type: functional
Chain of Glucose-6-phosphate 1-dehydrogenase (P11413 whole entry): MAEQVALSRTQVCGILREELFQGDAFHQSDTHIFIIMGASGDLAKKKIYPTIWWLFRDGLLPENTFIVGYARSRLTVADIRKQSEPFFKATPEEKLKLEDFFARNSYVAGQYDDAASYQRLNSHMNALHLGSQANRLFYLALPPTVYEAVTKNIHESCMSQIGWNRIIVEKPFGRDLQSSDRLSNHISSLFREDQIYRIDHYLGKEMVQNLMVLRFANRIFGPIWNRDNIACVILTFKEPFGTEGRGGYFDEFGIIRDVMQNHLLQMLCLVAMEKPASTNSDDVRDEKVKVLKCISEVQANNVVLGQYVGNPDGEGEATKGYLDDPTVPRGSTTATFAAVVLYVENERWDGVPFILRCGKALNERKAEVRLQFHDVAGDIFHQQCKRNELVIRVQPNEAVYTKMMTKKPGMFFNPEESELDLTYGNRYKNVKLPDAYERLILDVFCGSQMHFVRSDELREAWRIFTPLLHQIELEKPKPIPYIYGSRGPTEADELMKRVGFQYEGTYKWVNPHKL

Chain of Paired box protein Pax-8 (Q06710 whole entry): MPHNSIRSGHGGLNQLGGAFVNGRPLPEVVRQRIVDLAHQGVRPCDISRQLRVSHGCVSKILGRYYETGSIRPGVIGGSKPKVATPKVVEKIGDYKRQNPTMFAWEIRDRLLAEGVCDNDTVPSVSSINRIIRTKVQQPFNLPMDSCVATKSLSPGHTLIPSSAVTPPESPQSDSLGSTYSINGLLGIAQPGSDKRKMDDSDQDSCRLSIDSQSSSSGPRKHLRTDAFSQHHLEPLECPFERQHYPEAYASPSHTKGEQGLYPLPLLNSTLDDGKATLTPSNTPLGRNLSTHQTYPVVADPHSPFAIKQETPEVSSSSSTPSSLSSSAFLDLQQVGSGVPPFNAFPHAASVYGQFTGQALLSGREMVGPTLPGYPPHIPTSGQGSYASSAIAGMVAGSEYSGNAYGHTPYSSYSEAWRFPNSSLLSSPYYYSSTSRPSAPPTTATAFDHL
Chain of Kallikrein-7 (P49862 whole entry): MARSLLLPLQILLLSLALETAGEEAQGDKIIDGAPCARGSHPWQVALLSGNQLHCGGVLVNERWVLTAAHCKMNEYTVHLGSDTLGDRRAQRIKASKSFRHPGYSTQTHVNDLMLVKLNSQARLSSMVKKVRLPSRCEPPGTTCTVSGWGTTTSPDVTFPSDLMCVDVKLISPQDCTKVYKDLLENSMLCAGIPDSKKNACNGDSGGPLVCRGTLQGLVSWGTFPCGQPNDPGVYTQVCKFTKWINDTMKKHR
Chain of fMet-Leu-Phe receptor (P21462 whole entry): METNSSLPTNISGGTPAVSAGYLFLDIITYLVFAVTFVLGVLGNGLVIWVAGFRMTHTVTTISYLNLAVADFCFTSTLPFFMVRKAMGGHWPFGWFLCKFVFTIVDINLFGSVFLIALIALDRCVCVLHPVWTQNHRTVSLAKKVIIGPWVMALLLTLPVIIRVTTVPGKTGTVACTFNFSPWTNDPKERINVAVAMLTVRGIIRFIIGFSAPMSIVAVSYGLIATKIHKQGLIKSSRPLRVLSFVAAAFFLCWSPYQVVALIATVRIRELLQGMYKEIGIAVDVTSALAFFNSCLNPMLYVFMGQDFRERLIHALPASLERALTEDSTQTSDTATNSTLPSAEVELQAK
Chain of Cytochrome P450 2C9 (P11712 whole entry): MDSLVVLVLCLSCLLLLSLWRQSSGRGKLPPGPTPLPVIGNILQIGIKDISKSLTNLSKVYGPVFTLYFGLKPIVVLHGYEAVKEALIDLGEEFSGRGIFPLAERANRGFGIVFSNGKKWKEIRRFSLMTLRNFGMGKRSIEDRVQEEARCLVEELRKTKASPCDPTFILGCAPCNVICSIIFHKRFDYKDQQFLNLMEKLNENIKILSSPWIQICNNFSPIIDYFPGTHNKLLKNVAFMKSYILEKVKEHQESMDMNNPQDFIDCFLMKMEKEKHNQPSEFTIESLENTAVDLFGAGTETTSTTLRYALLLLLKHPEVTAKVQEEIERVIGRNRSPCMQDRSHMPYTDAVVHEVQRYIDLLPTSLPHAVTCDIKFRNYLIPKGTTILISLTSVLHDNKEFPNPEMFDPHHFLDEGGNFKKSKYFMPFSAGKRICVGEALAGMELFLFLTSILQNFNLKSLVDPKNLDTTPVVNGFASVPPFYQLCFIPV
Chain of 5-hydroxytryptamine receptor 2A (P35363 whole entry): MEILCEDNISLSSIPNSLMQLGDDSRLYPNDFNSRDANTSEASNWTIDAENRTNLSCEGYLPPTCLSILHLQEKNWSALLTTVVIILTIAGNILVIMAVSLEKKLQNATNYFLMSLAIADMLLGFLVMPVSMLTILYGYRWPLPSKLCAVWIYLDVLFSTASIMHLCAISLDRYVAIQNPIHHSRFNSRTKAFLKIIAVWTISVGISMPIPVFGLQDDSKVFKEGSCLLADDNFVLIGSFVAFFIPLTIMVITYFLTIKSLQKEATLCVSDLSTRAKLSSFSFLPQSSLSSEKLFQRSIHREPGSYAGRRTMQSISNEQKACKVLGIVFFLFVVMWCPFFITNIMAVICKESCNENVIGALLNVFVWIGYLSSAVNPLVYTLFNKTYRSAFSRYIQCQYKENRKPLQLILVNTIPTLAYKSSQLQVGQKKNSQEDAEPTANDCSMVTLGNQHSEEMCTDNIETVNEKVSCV
Chain of Mu-type opioid receptor (P35372 whole entry): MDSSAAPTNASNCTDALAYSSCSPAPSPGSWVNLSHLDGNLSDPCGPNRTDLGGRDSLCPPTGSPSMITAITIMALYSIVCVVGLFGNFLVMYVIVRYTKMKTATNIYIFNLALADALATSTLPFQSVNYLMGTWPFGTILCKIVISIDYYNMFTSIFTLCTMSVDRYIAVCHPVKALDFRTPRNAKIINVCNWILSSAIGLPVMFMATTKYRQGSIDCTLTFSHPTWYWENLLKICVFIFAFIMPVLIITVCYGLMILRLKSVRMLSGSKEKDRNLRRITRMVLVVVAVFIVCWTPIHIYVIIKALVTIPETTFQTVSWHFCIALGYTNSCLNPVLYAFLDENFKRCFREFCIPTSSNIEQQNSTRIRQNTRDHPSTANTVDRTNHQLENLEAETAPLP
Chain of Caspase-7 (P55210 24-198 limits assumed): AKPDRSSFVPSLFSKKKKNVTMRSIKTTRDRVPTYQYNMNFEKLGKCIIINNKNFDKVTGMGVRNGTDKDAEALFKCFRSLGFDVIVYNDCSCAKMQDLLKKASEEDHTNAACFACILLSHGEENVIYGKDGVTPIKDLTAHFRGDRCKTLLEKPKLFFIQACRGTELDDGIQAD
Chain of Caspase-7 (P55210 207-303 limits assumed): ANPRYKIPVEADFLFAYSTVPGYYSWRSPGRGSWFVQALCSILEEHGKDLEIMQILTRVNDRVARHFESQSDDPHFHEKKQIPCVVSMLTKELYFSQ
Chain of Luciferin 4-monooxygenase (P08659 whole entry): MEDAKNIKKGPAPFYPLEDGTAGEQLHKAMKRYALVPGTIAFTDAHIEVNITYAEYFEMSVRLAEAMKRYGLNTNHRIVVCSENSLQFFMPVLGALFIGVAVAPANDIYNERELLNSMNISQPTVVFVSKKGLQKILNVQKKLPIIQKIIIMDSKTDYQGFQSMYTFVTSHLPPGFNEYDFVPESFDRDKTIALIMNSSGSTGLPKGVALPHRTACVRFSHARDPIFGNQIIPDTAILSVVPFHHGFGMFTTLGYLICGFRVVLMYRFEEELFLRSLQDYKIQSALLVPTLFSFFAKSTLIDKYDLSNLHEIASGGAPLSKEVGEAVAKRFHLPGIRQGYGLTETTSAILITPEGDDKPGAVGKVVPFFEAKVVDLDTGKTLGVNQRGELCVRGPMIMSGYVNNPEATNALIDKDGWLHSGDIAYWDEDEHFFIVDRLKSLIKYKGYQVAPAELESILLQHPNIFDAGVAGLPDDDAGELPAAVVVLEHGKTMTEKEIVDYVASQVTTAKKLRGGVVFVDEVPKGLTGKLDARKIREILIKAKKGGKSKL
Chain of Induced myeloid leukemia cell differentiation protein Mcl-1 (Q07820 whole entry): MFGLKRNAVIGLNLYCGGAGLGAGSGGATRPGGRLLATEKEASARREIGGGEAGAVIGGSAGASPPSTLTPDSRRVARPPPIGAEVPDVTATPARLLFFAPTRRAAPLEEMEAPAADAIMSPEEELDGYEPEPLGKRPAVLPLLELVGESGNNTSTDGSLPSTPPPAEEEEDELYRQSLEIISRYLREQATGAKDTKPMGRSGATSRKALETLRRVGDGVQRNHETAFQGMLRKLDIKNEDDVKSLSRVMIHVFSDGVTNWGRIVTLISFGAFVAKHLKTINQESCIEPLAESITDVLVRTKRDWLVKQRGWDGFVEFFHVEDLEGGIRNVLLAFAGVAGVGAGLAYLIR

COc1cccc(S(=O)(=O)N2CCCCN3[C@@H](CO)[C@@H](c4ccc(C#CCC(C)C)cc4)[C@@H]3C2)c1
AC50 [1]: 43.3 µM (active) | AC50 [2]: 14.6 µM (active) | AC50 [3]: 11.8 µM (active) | AC50 [4]: 1.48 µM (active) | AC50 [5]: 0.991 µM (active)

CCOC(=O)c1sc(NC(=O)c2sccc2C)cc1C
EC50 [6]: 3.04 µM (active) | EC50 [7]: 0.409 µM (active) | AC50 [8]: 12.8 µM (active)

O=[N+]([O-])c1ccccc1-c1cc(-c2ccccc2O)n[nH]1
AC50 [9]: 7.59 µM (active) | AC50 [8]: 26 µM (active)

Cc1nc(NC(=O)c2cccs2)ccc1Br
EC50 [10]: > 67.5 µM (inactive) | EC50 [11]: 13.2 µM (active) | EC50 [12]: > 67.5 µM (inactive) | IC50 [13]: 24.4 µM (active) | EC50 [14]: 0.129 µM (active)

COc1ccc(-c2c(C)oc3c(CN4CCN(CCO)CC4)c(O)ccc3c2=O)cc1OC
AC50 [15]: 0.447 µM (inconclusive) | Ki [16]: > 66.7 µM (inactive)

COc1cccc(C(=O)C2=C(O)C(=O)N(Cc3cccnc3)C2c2ccco2)c1 (configuration not stated)
Ki [16]: > 66.7 µM (inactive)

CN1C[C@H](CO)C=C2c3cccc4[nH]cc(c34)C[C@H]21
EC50 [17]: 7.63 µM (active) | EC50 [18]: 53.2 µM (inconclusive) | EC50 [19]: > 29.9 µM (inactive) | EC50 [20]: > 7.72 µM (active) | EC50 [21]: 92.5 µM (inactive) | EC50 [22]: 0.018 µM (active) | IC50 [23]: 4.58 µM (active) | EC50 [24]: 20.6 µM (active) | IC50 [25]: > 29.9 µM (inactive)

COc1ccc(C#Cc2ccc([C@H]3[C@@H](CO)N4CCCCN(C(=O)Nc5ccccc5)C[C@H]34)cc2)cc1
AC50 [1]: 30.4 µM (active) | AC50 [26]: 16.4 µM (active) | AC50 [2]: 12.5 µM (active) | AC50 [27]: 6.04 µM (active) | AC50 [28]: 7.88 µM (active)

CCCSC1=N/C(=C\c2ccc([N+](=O)[O-])o2)C(=O)S1
IC50 [29]: 4.92 µM (active) | AC50 [30]: 45.9 µM (active) | AC50 [31]: 2.93 µM (active) | IC50 [32]: 3.88 µM (active)

CN1/C(=C\C(=O)c2cccs2)Sc2ccccc21
EC50 [10]: > 67.5 µM (inactive) | IC50 [33]: > 80 µM (inactive) | EC50 [12]: > 67.5 µM (inactive)

CN(C(=O)c1cc2c(=O)n3ccccc3nc2s1)C1CCCCC1
EC50 [20]: 24.8 µM (inactive)

O=S(=O)(Cc1ccccc1)N1CCCCN2[C@@H](CO)[C@H](c3ccc(C#Cc4ccccc4)cc3)[C@@H]2C1
AC50 [3]: 8.93 µM (active) | AC50 [5]: 4.25 µM (active)
